Measured values taken from US8648111B2, “N1-2-thiophene-2-ylethyl-N2-substituted biguanide derivate, preparation method thereof, and pharmaceutical composition containing the same as active ingredients” (Hanall Biopharma Co., Ltd., priority 2008, dated 2014).
Like-named read-outs stand apart in the source and are kept apart here.

Tests used:
Format in all cases: cell-based
[1] = test system: HepG2 cells; assay: Measurement of cholesterol synthesis inhibitory ability (cholesterol content in cell lysates, Amplex red)
Description: (§1) 2 mM metformin was used as a comparative compound for each of the plates (control group).
A cholesterol synthesis inhibitory ability, which is an important function of AMPK (AMP-activated protein kinase), was measured using HepG2 cells (ATCC: American Type Culture Collection) as a hepatic cell model according to the following procedure.
The hepatic cell model HepG2 cells were cultured in 1% serum-containing media (DMEM (Gibco), FBS (Gibco)) for 24 hours, and then treated with 100 μM or 500 μM of each of the compounds prepared in Examples for 24 hours. Then, the cells were disrupted with a lysis solution (0.1 M potassium phosphate, pH 7.4, 0.05 M NaCl, 5 mM cholic acid, 0.1% Triton X-100 (Sigma)). To the disrupted cells was added the same volume of a reaction solution (2 U/mL of a cholesterol oxidizing agent, 2 U/mL of a peroxidase, 0.2 U/mL of a cholesterol esterase, and 300 μM of Amplex red as a fluorescent factor (Molecular Probe)), which was allowed to react at 37° C. for 30 minutes. After completion of the reaction, the content of cholesterol formed in the cell lysates was measured at a wavelength of 560/590 nm (ex/em) using a fluorescence microscope.
A lower measurement value means an increased cholesterol synthesis inhibitory ability.

[2] = test system: HepG2 cells; assay: Measurement of gluconeogenesis inhibitory ability (14C-lactate, glucose formed in cells)
Description: as §1
HepG2 cells (ATCC: American Type Culture Collection) were cultured in 10% serum-containing high glucose media, transferred to no serum-containing low glucose media (DMEM (Gibco), FBS (Gibco)), and then treated with 100 μM of each of the compounds for 24 hours. Then, the cells were treated with 0.5 μCi ^14C-lactate (Amersham Pharmacia) and 10 mM L-lactate (Sigma), and cultured for 4 hours. After cultivation, the media were removed therefrom, and the cells were washed with PBS, treated with 0.1N NaOH and kept at room temperature for 1 hour. Then, the cells were neutralized with 1N HCl, and the content of glucose formed in the cells was measured with a liquid scintillation counter.
A lower measurement value means an increased gluconeogenesis inhibitory ability.

[3] = test system: C2C12 cells; assay: Measurement of glucose absorption ability (3H-deoxy-glucose uptake with insulin); settings: for Glucose absorption (100 uM) Aver.: 100 uM compound with 1 μM insulin, 24 hours, differentiated C2C12, higher value = stronger, more than 200% counts as glucose absorption ability
Description: as §1
C2C12 cells (ATCC: American Type Culture Collection), a muscle cell model, were induced to differentiate into muscle cells in 2% bovine fetal serum-containing media (DMEM (Gibco), FBS (Gibco)) for 6 days. The C2C12 cells which differentiated into muscle cells were transferred to serum-free low glucose media (DMEM (Gibco), FBS (Gibco)), treated with 100 μM of each of the compounds, and then cultured with 1 μM of insulin for 24 hours. After cultivation, the cells were treated with 1 μCi ^3H-deoxy-glucose (Amersham Pharmacia) and 10 μM deoxy-glucose (Sigma) at 37° C. for 15 minutes. The media were removed therefrom, and the cells were washed twice with PBS (phosphate buffered saline). The washed cells were treated with 0.1N NaOH and neutralized with 1N HCl. The content of glucose absorbed into the cells was measured with a liquid scintillation counter.
A higher measurement value means a stronger ability to reduce insulin resistance.

[4] = test system: HepG2 cells; assay: Measurement of triglyceride (triglyceride content in cell lysates, Amplex red)
Description: as §1
HepG2 cells (ATCC: American Type Culture Collection) were cultured in 1% serum-containing media (DMEM (Gibco), FBS (Gibco)) for 24 hours, and then treated with 100 μM or 500 μM of each of the compounds prepared in Examples for 24 hours. Then, the cells were disrupted with a lysis solution (0.1 M potassium phosphate, pH 7.4, 0.05 M NaCl, 5 mM cholic acid, 0.1% Triton X-100). […] After completion of the reaction, the content of triglyceride formed in the cell lysates was measured at a wavelength of 560/590 nm (ex/em) using a fluorescence microscope.
A lower measurement value means an increased triglyceride synthesis inhibitory ability.

[5] = 100 uM compound, 24 hours, HepG2, lower value = stronger cholesterol synthesis inhibition
[6] = 500 uM compound, 24 hours, HepG2, lower value = stronger cholesterol synthesis inhibition
[7] = 100 μM compound vs 2 mM metformin, by comparison of used amounts
[8] = 100 uM compound, 24 hours, HepG2, lower value = stronger triglyceride synthesis inhibition
[9] = 500 uM compound, 24 hours, HepG2, lower value = stronger triglyceride synthesis inhibition
[10] = 100 uM compound, 24 hours, HepG2, lower value = stronger gluconeogenesis inhibition
[11] = 100 uM compound, 24 hours, HepG2, lower value = stronger gluconeogenesis inhibition, 100 µM

Compound	Cholesterol (100 uM) Aver. [1, 5]	Cholesterol (500 uM) Aver. [1, 6]	effect in inhibiting gluconeogenesis relative to control group [2, 7]	activity at 100 µM ([2]; Homo sapiens, HepG2, 24 h, 100 uM compound, 24 hours, HepG2, lower value = stronger gluconeogenesis inhibition, read-out: Gluconeogenesis inhibition (100 uM) Aver.)	glucose absorption effect relative to control group [3, 7]	Glucose absorption (100 uM) Aver. [3]	Triglyceride (100 uM) Aver. [4, 8]	Triglyceride (500 uM) Aver. [4, 9]	Gluconeogenesis inhibition (100 uM) Aver. [2, 10]	Gluconeogenesis inhibition (100 uM) Aver. [2, 11]	Cholesterol (100 uM) Aver. [1]	Cholesterol (500 uM) Aver. [1]	Gluconeogenesis inhibition (100 uM) Aver. [2]	Triglyceride (100 uM) Aver. [4]	Triglyceride (500 uM) Aver. [4]
CCN=C(NCCc1cccs1)NC(=N)N.Cl [Example 1, N1-(thiophen-2-ylethyl)-N2-ethyl biguanide hydrochloride]	45.18	30.51	at least 20 times	48.9%	about 20 times	322.7%	56.70	54.57	–	–	–	–	–	–	–
Cl.N=C(N)NC(=Nc1ccccc1)NCCc1cccs1 [Example 20, N1-2-(thiophen-2-ylethyl)-N2-phenyl biguanide hydrochloride]	45.7	18.3	–	–	–	125.4%	67.5	57.6	87.36	–	–	–	–	–	–
COCCN=C(NCCc1cccs1)NC(=N)N.Cl [Example 24, N1-2-(thiophen-2-ylethyl)-N2-methoxyethyl biguanide hydrochloride]	92.58	75.75	–	–	–	114.91%	77.91	71.93	78.89	–	–	–	–	–	–
Cl.N=C(N)NC(=NC1CCCCCC1)NCCc1cccs1 [Example 22, N1-2-(thiophen-2-ylethyl)-N2-cycloheptyl biguanide hydrochloride]	69.8	44.4	–	–	–	173.8%	77.8	78.9	96.63	–	–	–	–	–	–
CN=C(NCCc1cccs1)NC(=N)N.Cl [Example 12, N1-2-(thiophen-2-ylethyl)-N2-methyl biguanide hydrochloride (isomer)]	69.94	–	–	–	–	221.61%	67.43	–	–	13.05	–	–	–	–	–
N1-2-(thiophen-2-ylethyl)-N2-cyclohexyl biguanide hydrochloride [Example 6]	–	–	–	–	–	56.15%	–	–	–	–	30.58	0.51	33.59	51.00	−1.71
CN=C(NCCc1cccs1)NC(=N)N.Cl [Example 11, N1-2-(thiophen-2-ylethyl)-N2-methyl biguanide hydrochloride (isomer)]	71.14	–	–	–	–	321.21%	74.98	–	–	25.03	–	–	–	–	–
Cl.N=C(N)NC(=Nc1ccc(Oc2ccccc2)cc1)NCCc1cccs1 [Example 36, N1-2-(thiophen-2-ylethyl)-N2-(4-phenoxyphenyl) biguanide hydrochloride]	31.22	34.74	–	–	–	4.50%	20.95	17.89	1.54	–	–	–	–	–	–
